# Laboratory results taken from patent publication US20240190866A1, “POLYHYDROXYLATED INDOLIZIDINE AND PYRROLIZIDINE DERIVATIVES AND USES THEREOF” (Academia Sinica, priority 2021, published 2024).
# Where two headings read alike, the source gives them in different places.
# Key:
# [1] = molecular target: human lysosomal α-mannosidase (α-hLM) (Homo sapiens (Human), UniProt O00754); test: α-Mannosidase (α-hLM) activity assay, 4-MU-α-D-mannopyranoside substrate; assay type: biochemical; settings: pH 4.6, 37° C., 1 h
# Chain of human lysosomal α-mannosidase (α-hLM) (O00754 50-1011): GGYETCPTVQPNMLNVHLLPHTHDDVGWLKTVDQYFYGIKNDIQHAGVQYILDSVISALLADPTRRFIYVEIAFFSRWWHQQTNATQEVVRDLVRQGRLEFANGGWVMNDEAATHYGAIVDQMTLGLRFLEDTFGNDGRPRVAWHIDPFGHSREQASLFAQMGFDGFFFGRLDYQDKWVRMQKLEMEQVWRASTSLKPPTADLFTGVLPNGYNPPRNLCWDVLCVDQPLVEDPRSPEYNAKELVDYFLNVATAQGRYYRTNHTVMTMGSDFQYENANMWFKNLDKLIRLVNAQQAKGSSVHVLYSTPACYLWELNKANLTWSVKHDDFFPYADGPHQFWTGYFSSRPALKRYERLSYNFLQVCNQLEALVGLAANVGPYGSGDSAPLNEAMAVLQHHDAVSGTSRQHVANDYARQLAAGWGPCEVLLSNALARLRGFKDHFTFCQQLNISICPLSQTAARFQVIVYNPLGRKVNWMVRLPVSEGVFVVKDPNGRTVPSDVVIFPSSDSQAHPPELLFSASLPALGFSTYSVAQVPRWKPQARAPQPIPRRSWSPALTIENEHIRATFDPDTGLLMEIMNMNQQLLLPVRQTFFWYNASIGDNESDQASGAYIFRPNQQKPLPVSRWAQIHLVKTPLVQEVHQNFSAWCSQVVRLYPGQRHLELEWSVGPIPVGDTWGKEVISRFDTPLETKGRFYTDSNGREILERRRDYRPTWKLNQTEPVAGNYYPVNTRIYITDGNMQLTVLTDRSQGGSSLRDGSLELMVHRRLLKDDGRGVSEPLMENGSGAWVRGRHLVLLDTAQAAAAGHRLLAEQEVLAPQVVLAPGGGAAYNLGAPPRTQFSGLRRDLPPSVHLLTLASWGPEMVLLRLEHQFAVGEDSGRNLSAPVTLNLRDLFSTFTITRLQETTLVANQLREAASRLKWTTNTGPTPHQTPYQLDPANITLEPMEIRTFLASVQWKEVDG
# Protocol: (§1) Compounds were diluted to give the final concentration of 100 μM and mixed with 4-MU-α-D-mannopyranoside as substrate and human Golgi α-mannosidase II in phosphate buffer (0.1 M Sodium phosphate dibasic, pH 7.0) or human lysosomal α-mannosidase in citric phosphate buffer (0.1 M Sodium phosphate monobasic monohydrate, 0.5 mM citric acid monohydrate, pH 4.6). The assay was carried out at 37° C. for a certain time (1 h for α-hLM, 2 h for α-hGMII). Stop solution (0.5 M K2CO3(aq), pH 10.8) was then added to the reactions and the fluorescence was determined at 355 nm excitation and 460 nm emission (SpectraMax M5, Molecular Devices). Inhibition was performed as relative enzyme activity to control. The active compounds were selected for libraries preparation and further tested at lower concentration to determine their IC50 values. The assays performed in 384-wells of the microtiter plates.
# [2] = molecular target: human Golgi α-mannosidase II (α-hGMII) (Homo sapiens (Human), UniProt Q16706); test: Golgi α-mannosidase II (α-hGMII) activity assay, 4-MU-α-D-mannopyranoside substrate; assay type: biochemical; settings: for IC50: pH 7.0, 37° C., 2 h; for Selectivity Index (SI): selectivity toward α-hGMII than α-hLM
# Chain of human Golgi α-mannosidase II (α-hGMII) (Q16706 whole entry): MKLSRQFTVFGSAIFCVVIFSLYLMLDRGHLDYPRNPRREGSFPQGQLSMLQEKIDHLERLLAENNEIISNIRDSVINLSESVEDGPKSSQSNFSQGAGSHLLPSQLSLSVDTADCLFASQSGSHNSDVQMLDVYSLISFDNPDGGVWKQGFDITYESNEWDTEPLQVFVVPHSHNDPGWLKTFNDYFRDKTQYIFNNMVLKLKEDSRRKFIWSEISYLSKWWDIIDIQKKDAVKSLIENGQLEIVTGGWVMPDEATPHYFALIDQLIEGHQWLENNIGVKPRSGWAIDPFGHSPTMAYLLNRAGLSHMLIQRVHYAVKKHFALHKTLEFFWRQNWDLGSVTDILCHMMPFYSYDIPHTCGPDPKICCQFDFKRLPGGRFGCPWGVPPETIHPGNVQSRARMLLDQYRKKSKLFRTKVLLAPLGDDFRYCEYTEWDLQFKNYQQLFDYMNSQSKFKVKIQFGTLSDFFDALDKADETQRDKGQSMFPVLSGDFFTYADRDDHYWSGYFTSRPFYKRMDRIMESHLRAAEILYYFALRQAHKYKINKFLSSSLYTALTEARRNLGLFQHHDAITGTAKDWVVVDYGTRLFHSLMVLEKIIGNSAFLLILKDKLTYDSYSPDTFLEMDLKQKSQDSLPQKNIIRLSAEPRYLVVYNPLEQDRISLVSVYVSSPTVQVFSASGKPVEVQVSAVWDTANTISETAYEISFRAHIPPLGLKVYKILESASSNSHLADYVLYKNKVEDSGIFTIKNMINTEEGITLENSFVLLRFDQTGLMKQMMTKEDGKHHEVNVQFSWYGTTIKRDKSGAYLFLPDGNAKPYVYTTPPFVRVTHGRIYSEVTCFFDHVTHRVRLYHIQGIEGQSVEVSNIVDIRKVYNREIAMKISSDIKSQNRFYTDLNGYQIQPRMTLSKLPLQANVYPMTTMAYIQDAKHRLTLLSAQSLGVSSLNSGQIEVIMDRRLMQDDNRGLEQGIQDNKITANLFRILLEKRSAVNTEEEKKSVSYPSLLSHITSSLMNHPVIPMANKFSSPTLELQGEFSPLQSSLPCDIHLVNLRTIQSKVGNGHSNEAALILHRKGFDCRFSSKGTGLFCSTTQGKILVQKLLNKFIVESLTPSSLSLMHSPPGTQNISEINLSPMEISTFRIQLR
# Protocol: as §1
# MDA-MB-231 cells = test: Anti-proliferative activity assay (CellTiter-Glo); assay type: cell-based, human
# Protocol: (§2) Human liver cancer HepG2 cells and Huh7 cells, breast cancer MDA-MB-231 cells, pancreatic cancer PANC-1 cells, and non-small cell lung (NSCL) cancer H1975 cells were maintained in Dulbecco's Modified Eagle Medium supplemented containing 10% fetal bovine serum (FBS), 100 units/ml penicillin and […] streptomycin in 37° C. incubator with 5% CO2.
# (§3) Anti-proliferative activity of HepG2, Huh7 or PANC-1 cells was determined by 3-(4,5-dimethylthiazol-2-yl)-2,5-diphenyltetrazolium bromide (MTT) assay, while that of H1975 or MDA-MB-231 cells was determined by luminescent assay with the aid of commercial kit CellTiter-Glo® (Promega).
# (§4) For H1975 and MDA-MB-231, cells were respectively seeded at 5×10^3 cells/well in 96-well plates and maintained for 14-16 hours. Cells were treated with dimethylsulfoxide (DMSO) or test compounds in varied concentrations for 48 h. Cell viability was monitored using Cell-TiterGlo (Promega), a kit that measures the quantity of ATP present in the cell culture, an indicator of metabolically active cells. The IC50 values of death cell lines were calculated accordingly.
# [3] = Serum biochemistry assay in Huh7 xenograft mice; assay type: in vivo, NOD-SCID mice; settings: 30 mg/kg i.p., twice a week; for ALT / AST / BUN / CRE / TBIL: serum
# Protocol: All blood specimens were collected in tubes and were left at 25° C. for 30 min to clot and centrifuged for 10 min at 1200 g. The concentrations of the following biochemical serum analytes collected were measured with FUJI DRI-CHEM 500i analyzer (FUJIFILM Corp., Tokyo, Japan) using the manufacturer's reagents and according to the manufacturer's instructions: Alanine Aminotransferase ALT), Aspartate Aminotransferase (AST), Blood Urea Nitrogen (BUN), Creatinine (CRE) and Total Bilirubin (TBIL).
# (§5) HCC xenografts were established in 5-6 weeks old NOD-SCID mice by subcutaneous inoculation of about 5×10^6 Huh7 cells suspended in 50 μL PBS+50 μL, Matrigel (Corning, 394230) in the left and right flanks of each mouse. After one week of inoculation, tumors were palpable and the mice were assigned randomly to 1 of 4 treatment groups. Group 1 (vehicle control group, n=6) mice only received a vehicle solution containing Kolliphor EL (Sigma Aldrich, C5135), 99.9% ethanol and water in a ratio of 1:1:6. Groups 2, 3, 4 and 5 mice were intraperitoneally injected with the test compound (e.g., compound ACK900, ACK901, or ACK902) (30 mg/kg, ip, n=7/group) or sorafenib (30 mg/kg, ip, n=6/group), twice per week for 25 days. The tumor volume was calculated by the formula of a ratioinal ellipsoid: [0.5236×short axis) m1^2×(long axis)m^2], and the tumor volume was measured twice per week. All mice were sacrificed at 27 days after the treatment started. Tumor tissues were isolated, photographed and weighted.
# In vivo tumor growth inhibition studies in human Huh7 xenograft rodents were performed in accordance with procedures as described in the “Material and Method” section. Xenograft tumors were generated by implanting Huh7 cells (5×10^6) subcutaneously into the left and right flanks of each NOD-SCID mouse. Starting on the 7th day after the inoculation of Huh7 cells, the mice were injected with ACK900, ACK901, ACK902 or sorafenib intraperitoneally (i.p.) at a dose of 30 mg/kg and twice a week for 34 days.
# Huh7 cells [4] = test: Transwell invasion assay; assay type: cell-based, human
# Protocol: (§6) Chemotaxis experiments with human HepG2Huh7, or PANC-1 cells were assayed by using transwells (Millipore). The cells to be analyzed (5×10^4 cells/well) were seeded in the upper chambers of the 24-well plate in 400 μL serum-free medium. FBS (10%) was used as the chemoattractant with or without different concentrations of the test compound (e.g., ACK900, ACK901, ACK902) in the lower chamber, and the plate was incubated under standard conditions. After incubation for 18 hours, the media in the upper chambers were aspirated and washed with phosphate-buffered saline (PBS) twice. Both non-migrated and migrated cells were fixed with 4% paraformaldehyde (PFA) for 30 minutes at room temperature, stained with 2% crystal violet solution. The non-invading cells were removed from the upper surface of the insert membrane with a cotton swab. The images were taken using an imaging reader (Cytation 5, BioTek, VT, U.S.A.) and analyzed using NIH ImageJ software. Percent in the results represent percent of initial number of cells in the migrating and nonmigrating Cell fractions.
# PANC-1 cells [5] = test: Transwell invasion assay; assay type: cell-based, human; settings: PANC-1, transwell
# Protocol: as §6
# H1975 cells = test: Anti-proliferative activity assay (CellTiter-Glo); assay type: cell-based, human; settings: 48 h
# Protocol: as §2, §3, §4
# Huh7 cells [6] = test: Transwell migration assay; assay type: cell-based, human; settings: 18 hours
# Protocol: as §6
# PANC-1 cells [7] = test: Transwell migration assay; assay type: cell-based, human; settings: PANC-1, transwell, 18 hours
# Protocol: as §6
# [8] = tested on: all cancer cell lines (HepG2, Huh7, PANC-1, H1975, MDA-MB-231); test: Anti-proliferative activity, pooled statement over all cancer cell lines; assay type: cell-based, human; settings: read-out: half maximum inhibitory concentration (IC50), range in all cancer cell lines
# Protocol: as §3
# (§7) Cancer cells including HepG2, Huh7 and PANC-1 cells were respectively seeded at 10^4, 4×10^3, and 5×10^3 cells/well in 96-well plates and maintained for 14-16 hours. Cells were treated with dimethylsulfoxide (DMSO) or test compounds in varied concentrations for 72 h. Cells were then washed with PBS twice, added a medium containing 3-(4,5-dimethylthiazol-2-yl)-2,5-diphenyltetrazolium bromide (MTT) at a final concentration of 0.5 mg/mL, and incubated for 4 h at 37° C. in a humidified incubator containing 5% CO2 in air. Cells having functional succinate dehydrogenase of mithchondria would convert MTT to formazan. Then, the medium was replaced with 100 μL of DMSO for 30 min at room temperature, and the 96-well plate was read by an ELISA reader at 550 nm to get the absorbance density values. The IC50 values of death cell lines were calculated accordingly.
# as §4
# Huh7 cells [9] = test: Anti-proliferative activity assay (MTT); assay type: cell-based, human; settings: 72 h
# Protocol: as §2, §3, §7
# PANC-1 cells [10] = test: Anti-proliferative activity assay (MTT); assay type: cell-based, human; settings: 72 h
# Protocol: as §2, §3, §7
# HepG2 cells [11] = test: Anti-proliferative activity assay (MTT); assay type: cell-based, human; settings: 72 h
# Protocol: as §2, §3, §7
# Huh7 cells [12] = settings: Data from Int. J. Med. Sci. 2017, 14, 523; cited from earlier work
# HepG2 cells [13] = settings: Data from Int. J. Med. Sci. 2017, 14, 523; cited from earlier work
# Huh7 xenograft tumors = test: Human hepatocarcinoma (HCC) Huh7 cells xenograft animal model; assay type: in vivo, NOD-SCID mice; settings: 30 mg/kg i.p., twice a week
# Description: A total of 34 NOD-SCID mice to (5- to 6-week-old) were maintained in micro-isolator units on a standard laboratory diet. Animals were housed under humidity- and temperature-controlled conditions and the light/dark cycle was set at 12-hour intervals, maintained under specified and opportunistic pathogen-free conditions. Mice were quarantined at least 1 week before experimental manipulation
# as §5, with “weighted. […]” for “weighted.”
SMILES,IC50 [1] [nM],IC50 [2] [nM],Selectivity Index (SI) [2],BUN [3] [mg/dL],CRE [3] [mg/dL],TBIL [3] [mg/dL],ALT [3] [U/L],AST [3] [U/L],further results
COc1ccc(NC(=S)NC[C@@H]2[C@@H](O)[C@@H](O)[C@H]3[C@H](O)CCCN32)cc1 [ACK904],950,800,1.2,–,–,–,–,–,–
"COc1cccc2c1C(=O)c1c(O)c3c(c(O)c1C2=O)C[C@@](O)(C(=O)CO)C[C@@H]3O[C@H]1C[C@H](N)[C@H](O)[C@H](C)O1 [Doxorubicin, doxorubicin, reference compound]",–,–,–,–,–,–,–,–,"IC50 (MDA-MB-231 cells; Homo sapiens, MDA-MB-231, 48 h): 1300 to 3000 nM"
"O[C@H]1[C@H]2[C@H](O)CCCN2C[C@H]1O [Swainsonine, swainsonine, reference compound]",–,40,2,–,–,–,–,–,–
CCCCCC[C@H]1CC[C@H](c2ccc(NC(=S)NC[C@@H]3[C@@H](O)[C@@H](O)[C@H]4[C@H](O)CCCN43)cc2)CC1 [ACK901],21500,1000,–,21.87 ± 3.77,0.47 ± 0.18,0.64 ± 0.37,74.85 ± 82.13,173.85 ± 95.67,invasive capability (Huh7 cells [4]): remarkably decreased; invasive capability (PANC-1 cells [5]): remarkably decreased; IC50 (H1975 cells): 7700 nM; IC50 (MDA-MB-231 cells; 48 h): 1000 nM; migratory capability (Huh7 cells [6]): remarkably decreased; migratory capability (PANC-1 cells [7]): remarkably decreased; IC50 [8]: 300 to 19100 nM; IC50 (Huh7 cells [9]): 1300 nM; IC50 (PANC-1 cells [10]): 300 nM; IC50 (HepG2 cells [11]): 1800 nM
CCC[C@H]1CC[C@H](c2ccc(C(=O)NC[C@@H]3[C@@H](O)[C@@H](O)[C@H]4[C@H](O)CCCN43)cc2)CC1 [ACK902],6800,1600,4.3,23.87 ± 4.30,0.43 ± 0.11,0.9 ± 0.56,64.42 ± 57.49,250 ± 182.44,invasive capability (Huh7 cells [4]): remarkably decreased; invasive capability (PANC-1 cells [5]): remarkably decreased; IC50 (H1975 cells): 11500 nM; IC50 (MDA-MB-231 cells; 48 h): 9900 nM; migratory capability (Huh7 cells [6]): remarkably decreased; migratory capability (PANC-1 cells [7]): remarkably decreased; IC50 [8]: 300 to 19100 nM; IC50 (Huh7 cells [9]): 3700 nM; IC50 (PANC-1 cells [10]): 1600 nM; IC50 (HepG2 cells [11]): 14500 nM
O=C(NC[C@@H]1[C@@H](O)[C@@H](O)[C@H]2[C@H](O)CCCN21)c1ccc(-c2ccccc2)cc1 [ACK903],650,190,3.4,–,–,–,–,–,–

# More lines, main results first:
IC50 [1] [nM],IC50 [2] [nM],Selectivity Index (SI) [2],BUN [3] [mg/dL],CRE [3] [mg/dL],TBIL [3] [mg/dL],SMILES,ALT [3] [U/L],AST [3] [U/L],further results
–,–,–,23 ± 2.53,0.35 ± 0.19,0.73 ± 0.32,"CNC(=O)c1cc(Oc2ccc(NC(=O)Nc3ccc(Cl)c(C(F)(F)F)c3)cc2)ccn1 [Sorafenib, sorafenib, reference compound]",61.33 ± 54.45,135.33 ± 90.76,IC50 (Huh7 cells [12]): 5970 nM; serious side effects including hepatoxicity and nephrotoxicity [3]: no serious side effects including hepatoxicity and nephrotoxicity were observed; IC50 (HepG2 cells [13]): 7420 nM; signs of harm or decreased body weight (Huh7 xenograft tumors): none of the mice injected with ACK900-ACK902 or sorafenib exhibited signs of harm or decreased body weight; tumor volume vs control (Huh7 xenograft tumors; P<0.05): Significant reduction
1500,1300,1.1,–,–,–,O[C@@H]1[C@H](O)[C@@H](CNC(=S)Nc2ccccc2)N2CCC[C@@H](O)[C@H]12 [ACK905],–,–,–
